Data: patent US9045505B2, “Nitric oxide donors” (University of Otago, priority 2006, dated 2015)

What was measured:
mice = assay: Cardiac ischemia-reperfusion injury in vivo (LAD occlusion); design: species or system mouse; conditions: 100 ng/kg into left ventricle 5 min prior to reperfusion, 30 min LAD occlusion, 24 h recovery
Description: Male C57BL/6 mice (˜25 g) were purchased from the Jackson Laboratory and handled in accordance with the procedures of the University of Rochester Committee on Animal Research. All surgical procedures were sterile and performed as described previously. Briefly, analgesics (acetaminophen 0.75 mg/ml in drinking water) were administered 24 hr before, and during the perioperative period.
Following anesthesia (Avertin, 2,2,2-tribromoethanol, […] IP) mice were intubated with a 20 gauge PE catheter which was connected to a rodent ventilator (Harvard MiniVent, 120 cycles/min., 0.3 ml tidal volume). A thoracotomy was performed and the left anterior descending coronary artery (LAD) was then ligated and occluded with a 9-0 proline suture for 30 min. MitoSNAP or MitoNAP (100 ng/kg) were dissolved in 0.9% NaCl saline (final volume 50 μl) and then administered 5 min prior to reperfusion into left ventricle (LV) using 30G½ needle. Reperfusion was initiated by removing the suture. The chest and skin were sutured closed, the endotracheal tube removed and the animal returned to its cage to recover. After 24 hrs. the animal was re-anesthetized, the LAD re-ligated, and Evans' blue dye (1.0% w/v, 1.5 ml) perfused via the LV. […] Slices were scanned and infarct/AR ratios determined with NIH ImageJ software.

[1] = system: Langendorff-perfused mouse hearts; assay: Cardiac ischemia-reperfusion injury in Langendorff-perfused mouse hearts (ex vivo)
Description: FIG. 16 is a series of graphs showing the vasodilatory and tissue protective effects of MitoSNAP. (a) Dose-response curves for the effect of MitoSNAP and related compounds on blood vessel relaxation. The effects of intact or decomposed MitoSNAP and SNAP on pre-contracted rat thoracic aorta mounted in a myograph were determined Data represent means±sem. For MitoSNAP n=8 from experiments on two independent rat aorta preparations. For decomposed MitoSNAP and SNAP experiments the data (n=4) are from one aorta preparation. (b) EC50 for the effect of MitoSNAP and SNAP on blood vessel relaxation. The EC50 values were determined from experiments shown in (a) above. ***p<0.001 by Student's unpaired t-test. (c & d) MitoSNAP protects against I/R injury in Langendorff-perfused mouse hearts. Hearts from C57BL6 mice were Langendorff perfused and subjected to 25 min global normothermic ischemia followed by 1 h of reperfusion. MitoSNAP or MitoNAP (100 nM final), or vehicle carrier, was added via an infusion port above the aortic cannula during reperfusion. Hearts were then stained with 2,3,5-triphenyltetrazolium chloride (TTC) to visualize infarct. (c) Protection of heart function by MitoSNAP during I/R injury. Left ventricular contractile function was recorded throughout the I/R protocol.
FIG. 18 is a graph showing the effect of pre-ischemic administration of MitoSNAP or MitoNAP on recovery of heart function (rate pressure product) from IR injury. Experiments were carried out exactly as described in FIGS. 16c & 16d, except that MitoSNO1 or MitoNAP were infused into the heart for 20 min, followed by a 2 min wash-out period, prior to the onset of ischemia. White symbols=vehicle control, black symbols=MitoSN01, gray symbols=MitoNAP. Data are means±sem, n≧6. […]
There is considerable evidence pointing to mitochondrial damage during the reperfusion phase of cardiac ischemia-reperfusion (I/R) injury. […] Therefore we determined if MitoSNAP could decrease I/R injury in a mouse heart Langendorff model (FIGS. 16c & d). […]

complex I = assay: S-nitrosation of bovine heart mitochondrial membranes and complex I; format: biochemical

CC(=O)NC(C(=O)NCCCCC[P+](c1ccccc1)(c1ccccc1)c1ccccc1)C(C)(C)SN=O.CS(=O)(=O)[O-] (stereo not shown) [MitoSNAP, [5-(2-acetylamino-3-methyl-3-nitrosothio-butyrylamino)-penty1]-triphenylphosphonium methanesulfonate]
protection against heart damage (infarct/area at risk) (mice): Protects Against Cardiac Ischemia-Reperfusion Injury | infarct size ([1]; 100 nM during reperfusion): decrease in infarct size | recovery of heart function (rate pressure product) ([1]; 100 nM during reperfusion, 25 min ischemia, 1 h reperfusion): better recovery of heart function | protection against I/R injury ([1]; delivered before the I/R injury): small degree of protection | S-nitrosation of complex I (BN-PAGE, Cy3) (complex I; 75 μM, 5 min): complex I was S-nitrosated | formation of protein SNOs (complex I; 75 μM, 5 min, mean±SD, n=4): 4.8±0.9 nmol protein SNOB/mg protein | decrease of SNO content by GSH treatment (complex I; 1 mM GSH): ~53%
